Here are results for 14 compounds from ChEMBL document CHEMBL1146807, “A new family of quinoline and quinoxaline analogues of combretastatins” (Bioorg Med Chem Lett, 2004).

Calls of active or inactive are those of the source. The calls are words filed in the database; no cut-off is given here.

The test system of one experiment is SK-MEL-28. Kind of experiment: Cytotoxic activity against MEL-28 cell line. Type of experiment: functional, cell-based. The note with it: Homo sapiens.
Experiment [1] can be described thus: Compound tested for inhibition of tubulin polymerization at 60 uM; No inhibition. In kind it is functional.
A further experiment deals with P388. Kind of experiment: Cytotoxic activity against P-388 cell line. Type of experiment: functional, cell-based. To be noted: Mus musculus.
For the next experiment, the system named is HCT-116. Kind of experiment: Cytotoxic activity against H116 cell line. In kind it is functional, cell-based. The note with it: Homo sapiens.
The subject of the next experiment is A549. Kind of experiment: Cytotoxic activity against A-549 cell line. Type of experiment: functional, cell-based. The note with it: Homo sapiens.
The test system of another experiment is HT-29. Description: Cytotoxic activity against HT-29 cell line. The note with it: Homo sapiens. In kind it is functional, cell-based.
A short description of experiment [2]: Compound tested for inhibition of tubulin polymerization. In kind it is functional.

Broadly, the IC50 is the concentration that gives 50% inhibition. On to `COc1cc(/C=C\c2ccc3nc(C)c(C)nc3c2)cc(OC)c1OC`, for which the concentration for half-maximal inhibition (IC50) in the experiment on SK-MEL-28, in the experiment with P388, in the experiment on HCT-116, with A549 and with HT-29 was more than 15800 nM each time. The inhibition entry in experiment [1] is “inactive”.

For `COc1cc(/C=C\c2ccc3nccnc3c2)cc(OC)c1OC`, the IC50 with SK-MEL-28, in the experiment with P388, in the experiment on HCT-116, with A549 and with HT-29 was 7940 nM each time. In addition, the inhibition result in experiment [1] is “inactive”.

With `COc1cc(/C=C\c2cnc3ccccc3c2)cc(OC)c1OC`, the IC50 in the experiment with SK-MEL-28, in the experiment with P388, with HCT-116, in the experiment with A549 and in the experiment with HT-29 was 398 nM each time.

As to `COc1cc(/C=C/c2ccc3ccccc3n2)cc(OC)c1OC`, the IC50 in the experiment with SK-MEL-28, with P388, in the experiment with HCT-116, in the experiment with A549 and in the experiment with HT-29 was 398 nM each time.

For `COc1cc(/C=C\c2ccc3ccccc3c2)cc(OC)c1OC` [NAPHTHYLCOMBRETASTATIN], in the experiment with HCT-116, the IC50 is 15.8 nM.

Regarding `COc1cc(/C=C/c2ccc3cccnc3c2)cc(OC)c1OC`, the IC50 in the experiment on SK-MEL-28, in the experiment with P388, in the experiment on HCT-116, in the experiment with A549 and with HT-29 was 1580 nM throughout.

Regarding `COc1cc(/C=C\c2ccnc3ccccc23)cc(OC)c1OC`, the half-maximal inhibitory concentration (IC50) in the experiment on SK-MEL-28 is 7940 nM; in the experiment with P388, 7940 nM; with HCT-116, 7940 nM; with A549, 7940 nM; in the experiment with HT-29, 15800 nM.

Take `COc1cc(/C=C\c2ccc3ccccc3n2)cc(OC)c1OC`: the 50% inhibitory concentration (IC50) in the experiment on SK-MEL-28, with P388, in the experiment with HCT-116, with A549 and in the experiment on HT-29 was 316 nM in each case.

As for `COc1cc(/C=C/c2ccc3nccnc3c2)cc(OC)c1OC`, the IC50 in the experiment on SK-MEL-28, in the experiment with P388, in the experiment on HCT-116, in the experiment with A549 and with HT-29 was more than 15800 nM throughout.

As for `COc1ccc(/C=C\c2cc(OC)c(OC)c(OC)c2)cc1O` [COMBRETASTATIN A4], half-maximal inhibition with HCT-116 (IC50) was put at 3.16 nM.

As for `COc1cc(/C=C/c2cnc3ccccc3c2)cc(OC)c1OC`, the half-maximal inhibitory concentration (IC50) in the experiment with SK-MEL-28, with P388, in the experiment on HCT-116, in the experiment on A549 and in the experiment on HT-29 was more than 3160 nM throughout.

For `COc1cc(/C=C/c2ccc3nc(C)c(C)nc3c2)cc(OC)c1OC`, the half-maximal inhibitory concentration (IC50) with SK-MEL-28, in the experiment on P388, in the experiment with HCT-116, with A549 and with HT-29 was more than 15800 nM throughout.

In the case of `COc1cc(/C=C\c2ccc3ncccc3c2)cc(OC)c1OC`, the IC50 in the experiment on SK-MEL-28, in the experiment on P388, with HCT-116, in the experiment with A549 and with HT-29 was 31.6 nM in each case.

As to `COc1cc(/C=C\c2ccc3cccnc3c2)cc(OC)c1OC`, the concentration for half-maximal inhibition (IC50) in the experiment with SK-MEL-28 is 158 nM; in the experiment on P388 it was 158 nM; in the experiment with HCT-116, 158 nM; in experiment [2], 20000 nM; in the experiment on A549, 158 nM; in the experiment with HT-29, 158 nM.
